Measured values taken from ChEMBL document CHEMBL1124016, “Antihypertensive activity in a series of 1-piperazino-3-phenylindans with potent 5-HT2-antagonistic activity” (J Med Chem, 1988).
pIC50: −log10 of the molar value.

Tests used:
Mus musculus = species: Mus musculus; assay: Inhibition of methyl phenidate induced stereotyped gnawing in mice; format: functional
D(2) dopamine receptor = D(2) dopamine receptor (Rattus norvegicus, UniProt P61169); assay: Inhibition of [3H]spiperone binding to Dopamine receptor D2 from rat striatal membranes; format: cell membranes, Membrane
Chain of D(2) dopamine receptor (P61169 whole entry): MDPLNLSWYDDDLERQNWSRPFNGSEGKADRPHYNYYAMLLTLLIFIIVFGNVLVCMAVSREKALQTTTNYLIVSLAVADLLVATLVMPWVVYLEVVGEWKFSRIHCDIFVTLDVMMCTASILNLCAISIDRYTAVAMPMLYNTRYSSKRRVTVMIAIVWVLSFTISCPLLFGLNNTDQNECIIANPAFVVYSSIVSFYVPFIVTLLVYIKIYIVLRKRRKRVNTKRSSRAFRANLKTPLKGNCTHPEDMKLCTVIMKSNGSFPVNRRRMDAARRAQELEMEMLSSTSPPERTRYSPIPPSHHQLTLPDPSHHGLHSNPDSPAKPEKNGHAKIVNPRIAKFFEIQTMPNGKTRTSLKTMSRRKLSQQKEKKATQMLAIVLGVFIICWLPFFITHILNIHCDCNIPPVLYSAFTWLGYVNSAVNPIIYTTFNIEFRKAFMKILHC

Rattus norvegicus [1] = assay: Percent reduction of blood pressure in spontaneously hypertensive rat after 10 min at intraperitoneal administration of 5 mg/kg; format: functional
[2] = molecular target: Serotonin 2 (5-HT2) receptor (Rattus norvegicus, UniProt P30994+P08909+P14842); assay: Inhibition of [3H]spiperone binding to 5-hydroxytryptamine 2 receptor from rat cortical membranes; format: cell membranes, Membrane
Rattus norvegicus [3] = species: Rattus norvegicus; assay: Inhibition of L-5-HTP (L-5-hydroxytryptophan) induced head twitches in rat; format: functional
Rattus norvegicus [4] = assay: Inhibition of phenylephrine induced pressor response in pithed rats (following i.v. administration of […]); format: functional; details: route intravenous
Rattus norvegicus [5] = assay: Inhibition of 5-HT induced pressor response in pithed rats, after intravenous administration, activity is expressed as ED50; format: functional
Rattus norvegicus [6] = assay: Inhibition of 5-HT induced pressor response in pithed rats, after intravenous administration of 0.02 mg/kg; format: functional
Rattus norvegicus [7] = assay: Inhibition of 5-HT induced pressor response in pithed rats, after intravenous administration; format: functional
[8] = molecular target: T1, Adrenergic receptor alpha-1 (Rattus norvegicus, UniProt P15823+P23944+P43140); assay: Inhibition of [3H]prazosin binding to alpha-1 adrenergic receptor from rat cortical membranes; format: cell membranes, Membrane
T1 sequence (P15823 whole entry): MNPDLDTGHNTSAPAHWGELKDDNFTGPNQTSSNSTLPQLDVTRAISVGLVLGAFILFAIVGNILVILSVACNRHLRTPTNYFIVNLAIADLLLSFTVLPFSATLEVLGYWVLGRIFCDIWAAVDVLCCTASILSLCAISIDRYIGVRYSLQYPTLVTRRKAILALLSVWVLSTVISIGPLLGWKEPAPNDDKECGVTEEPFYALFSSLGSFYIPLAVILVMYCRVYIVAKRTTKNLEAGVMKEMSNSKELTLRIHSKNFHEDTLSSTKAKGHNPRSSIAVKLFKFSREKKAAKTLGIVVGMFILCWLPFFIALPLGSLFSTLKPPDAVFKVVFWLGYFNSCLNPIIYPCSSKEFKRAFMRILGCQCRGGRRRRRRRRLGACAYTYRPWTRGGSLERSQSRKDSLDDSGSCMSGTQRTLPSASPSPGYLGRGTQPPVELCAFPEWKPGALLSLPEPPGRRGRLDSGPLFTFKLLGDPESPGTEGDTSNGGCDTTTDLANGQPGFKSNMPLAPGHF
T1 sequence (P23944 whole entry): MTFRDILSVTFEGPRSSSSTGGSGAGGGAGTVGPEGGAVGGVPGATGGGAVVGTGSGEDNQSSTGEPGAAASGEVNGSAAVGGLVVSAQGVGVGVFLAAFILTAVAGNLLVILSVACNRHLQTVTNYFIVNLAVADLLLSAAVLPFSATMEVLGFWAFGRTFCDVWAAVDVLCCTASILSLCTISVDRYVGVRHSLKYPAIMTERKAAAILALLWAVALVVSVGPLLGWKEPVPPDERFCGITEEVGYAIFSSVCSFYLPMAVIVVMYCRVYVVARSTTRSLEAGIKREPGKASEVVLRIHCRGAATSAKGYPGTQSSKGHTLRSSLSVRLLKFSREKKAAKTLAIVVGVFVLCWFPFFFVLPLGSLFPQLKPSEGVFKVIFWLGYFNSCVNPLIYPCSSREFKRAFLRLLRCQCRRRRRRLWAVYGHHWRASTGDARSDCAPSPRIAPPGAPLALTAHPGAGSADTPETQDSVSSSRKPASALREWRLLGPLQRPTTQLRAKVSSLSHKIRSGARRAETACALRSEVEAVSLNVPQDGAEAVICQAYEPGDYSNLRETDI
T1 sequence (P43140 whole entry): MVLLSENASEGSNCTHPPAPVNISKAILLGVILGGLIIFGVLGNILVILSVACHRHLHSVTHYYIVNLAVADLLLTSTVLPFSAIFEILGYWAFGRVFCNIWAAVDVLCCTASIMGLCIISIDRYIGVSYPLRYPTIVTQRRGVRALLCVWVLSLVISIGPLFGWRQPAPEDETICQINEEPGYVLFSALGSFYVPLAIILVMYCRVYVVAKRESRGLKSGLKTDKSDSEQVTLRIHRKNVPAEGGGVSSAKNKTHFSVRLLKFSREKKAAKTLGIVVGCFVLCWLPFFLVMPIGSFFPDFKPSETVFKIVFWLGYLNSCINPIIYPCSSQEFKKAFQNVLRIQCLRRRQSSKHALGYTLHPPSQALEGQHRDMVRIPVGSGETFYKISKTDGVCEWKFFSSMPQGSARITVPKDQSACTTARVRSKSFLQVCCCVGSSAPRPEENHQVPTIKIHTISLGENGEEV

[9] = Rattus norvegicus, read-out: ED50

SMILES | ED50 (Mus musculus) [µmol/kg] | pIC50 (D(2) dopamine receptor) | Reduction (Rattus norvegicus [1]) [%] | IC50 [2] [nM] | ED50 (Rattus norvegicus [3]; [9]) [µmol/kg] | Change (Rattus norvegicus [4]) [%] | ED50 (Rattus norvegicus [5]) [µmol/kg] | Change (Rattus norvegicus [6]) [%] | ED50 (Rattus norvegicus [7]) [µmol/kg] | IC50 [8] [nM] | ED50 (Rattus norvegicus [3]) [µmol/kg]
O=C1NCCN1CCN1CCN(C(=O)c2ccc(F)cc2)CC1 | > 125 | < 6.00 | 11 | 58000 | 1.8 | – | – | – | – | – | –
COc1cc2nc(N3CCN(C(=O)c4ccco4)CC3)nc(N)c2cc1OC [PRAZOSIN] | > 95 | – | -32 | – | 0.45 | -100 | 0.0095 | 0 | > 12 | – | –
O=C(O)/C=C\C(=O)O.O=C(O)/C=C\C(=O)O.O=C1NCCCN1CCN1CCN(C2CC(c3ccc(F)cc3)c3ccc(F)cc32)CC1 (stereo unspecified) | > 59 | – | 0 | 11 | – | – | – | – | – | – | –
Fc1ccc(C2CC(N3CCN(CCN4CCN=C4S)CC3)c3ccccc32)cc1.O=C(O)/C=C\C(=O)O.O=C(O)/C=C\C(=O)O (stereo unspecified) | > 61 | – | -18 | 3.3 | 0.43 | – | – | – | – | – | –
Cl.Cl.O=C1CCCN1CCN1CCN(C2CC(c3ccc(F)cc3)c3ccc(F)cc32)CC1 (stereo unspecified) | – | 7.07 | 0 | 12 | – | – | – | – | – | 36 | –
Fc1ccc([C@@H]2C[C@@H](N3CCN(CCN4CCN=C4S)CC3)c3cc(F)ccc32)cc1.O=C(O)/C=C\C(=O)O.O=C(O)/C=C\C(=O)O | – | 7.54 | -32 | 2.2 | – | – | – | – | – | 13 | –
O=C1NCCN1CCN1CCN([C@H]2C[C@H](c3ccccc3)c3ccccc32)CC1 | – | – | -7 | – | – | 0 | – | -11 | – | – | –
Cl.Cl.Oc1nc2ccccc2n1CCN1CCN(C2CC(c3ccc(F)cc3)c3ccc(F)cc32)CC1 (stereo unspecified) | > 72 | 7.60 | -15 | 9.4 | – | – | – | – | – | 160 | –
Cl.Cl.OC1=NCCN1CCN1CCN(C2CC(c3ccc(Cl)cc3)c3ccccc32)CC1 (stereo unspecified) | > 80 | 6.10 | 3 | 37 | 40 | 15 | – | 13 | – | – | –
Cc1nc2sccn2c(=O)c1CCN1CCC(=C(c2ccc(F)cc2)c2ccc(F)cc2)CC1 [RITANSERIN] | > 84 | – | 10 | – | 1.2 | 16 | – | -95 | – | 47 | –
COc1ccc(C2CC(N3CCN(CCN4CCNC4=O)CC3)c3ccccc32)cc1 (stereo unspecified) | > 95 | 4.82 | 3 | 250 | > 48 | 69 | – | -19 | – | 1400 | –
CN1CCN(C2CC(c3ccc(F)cc3)c3ccc(F)cc32)CC1 (stereo unspecified) | 11 | – | -15 | 7.7 | 0.079 | -19 | – | -85 | – | 22 | –
O=C1NCCN1CCN1CCN(C(=O)c2ccccc2)CC1 | > 132 | < 6.00 | 6 | 4800 | > 8.2 | – | – | – | – | – | –
O=C1NCCN1CCN1CCN(Cc2ccccc2)CC1 | > 139 | < 6.00 | 15 | > 1000 | > 4.3 | – | – | – | – | > 10000 | –
CN1CCN(CCN2CCN(C3CC(c4ccc(F)cc4)c4ccccc43)CC2)C1=O.Cl.Cl.O (stereo unspecified) | > 80 | – | -6 | 13 | – | – | – | – | – | – | –
CCN1CCN(CCN2CCN(C3CC(c4ccc(F)cc4)c4ccc(F)cc43)CC2)C1=O.Cl.Cl (stereo unspecified) | > 75 | 7.60 | 4 | 4.8 | – | – | – | – | – | 34 | –
Fc1ccc(C2CC(N3CCN(CCN4CCCN=C4S)CC3)c3cc(F)ccc32)cc1.O=C(O)/C=C\C(=O)O.O=C(O)/C=C\C(=O)O (stereo unspecified) | 23 | 7.29 | -13 | 7.5 | – | – | – | – | – | – | –
Cl.Cl.O=C1OCCN1CCCN1CCN(C2CC(c3ccc(F)cc3)c3ccc(F)cc32)CC1 (stereo unspecified) | – | 7.52 | -12 | 22 | – | – | – | -32 | – | – | –
Fc1ccc(C2CC(N3CCNCC3)c3ccccc32)cc1 (stereo unspecified) | > 108 | 5.72 | 10 | 30 | 2.5 | 7 | – | -13 | – | 100 | –
O=C(O)/C=C\C(=O)O.O=C(O)/C=C\C(=O)O.O=C1NCCN1CCN1CCN([C@@H]2C[C@@H](c3ccccc3F)c3ccccc32)CC1 | > 62 | – | -3 | – | 17 | 13 | – | -18 | – | – | –
O=C(O)/C=C\C(=O)O.O=C(O)/C=C\C(=O)O.O=C1NCCN1CCN1CCN([C@H]2C[C@H](c3ccccc3F)c3ccccc32)CC1 | > 62 | – | -8 | – | > 31 | 3 | – | 0 | – | – | –
O=C(O)/C=C\C(=O)O.O=C(O)/C=C\C(=O)O.O=C1NCCN1CCN1CCN(C2CC(c3ccccc3)c3ccccc32)CC1 (stereo unspecified) | > 64 | 5.72 | – | 12 | – | – | – | – | – | – | 26
O=C(c1ccc(F)cc1)C1CCN(CCn2c(=O)[nH]c3ccccc3c2=O)CC1 [KETANSERIN] | > 101 | 5.74 | -32 | – | 0.79 | -14 | 3.2 | -62 | 0.024 | 15 | –
